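Assay format: 96-well plates, 48-hour exposure. GI50 = concentration required for 50% inhibition of growth. TGI denotes the concentration required for complete inhibition of growth.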
Assays:
Assay in all cases: inhibition of tumour cell growth, NCI panel, 48 h
A498 renal = tested on: A498 renal
SR leukemia = tested on: SR leukemia
LOX IMVI melanoma = tested on: LOX IMVI melanoma
NCI-H522 lung = tested on: NCI-H522 lung
SF-295 CNS = tested on: SF-295 CNS
HCC-2998 colon = tested on: HCC-2998 colon
786-0 renal = tested on: 786-0 renal
NCI-H226 lung = tested on: NCI-H226 lung
DU-145 prostate = tested on: DU-145 prostate
PC-3 prostate = tested on: PC-3 prostate

Compound	TGI (A498 renal)	TGI (SR leukemia)	TGI (LOX IMVI melanoma)	TGI (NCI-H522 lung)	TGI (SF-295 CNS)	TGI (HCC-2998 colon)	TGI (786-0 renal)	TGI (NCI-H226 lung)	GI50 (A498 renal)	GI50 (SR leukemia)	GI50 (LOX IMVI melanoma)	GI50 (NCI-H522 lung)	GI50 (SF-295 CNS)	GI50 (HCC-2998 colon)	GI50 (DU-145 prostate)	TGI (DU-145 prostate)	GI50 (786-0 renal)	GI50 (NCI-H226 lung)	TGI (PC-3 prostate)	GI50 (PC-3 prostate)
CC1(C)OC(=O)C(=C2CC(c3ccccc3)c3ccccc32)C(=O)O1 (configuration not stated)	> 100 µM	> 100 µM	> 100 µM	> 100 µM	> 100 µM	> 100 µM	> 100 µM	> 100 µM	–	–	–	–	–	–	–	–	–	–	–	–
C=C1N(C)c2ccc(Cl)cc2C1(C)C	43.6 µM	8.94 µM	55.5 µM	74.8 µM	38.5 µM	> 100 µM	96.1 µM	> 100 µM	11 µM	2.74 µM	6.98 µM	5.91 µM	4.17 µM	6.25 µM	6.66 µM	> 100 µM	16.9 µM	16.4 µM	–	–
Cc1cc2c(c(N)c1C)C(=O)c1ccccc1C2=O	79 µM	> 100 µM	> 100 µM	> 100 µM	86.6 µM	> 100 µM	62.7 µM	–	–	–	–	–	–	–	–	–	–	–	–	–
CCC/C(=N\NC(=O)c1cc2ccccc2cc1O)C(CC)C(=O)CCC(=O)N(Cc1ccccc1)Cc1ccccc1 (configuration not stated)	> 100 µM	> 100 µM	> 100 µM	> 100 µM	> 100 µM	> 100 µM	> 100 µM	> 100 µM	–	–	–	–	–	–	–	–	–	–	–	–
CCN(CC(COc1ccc2c(c1)[n+]([O-])nc(N)[n+]2[O-])OC(C)=O)C(C)=O (configuration not stated)	> 100 µM	> 100 µM	> 100 µM	56.3 µM	> 100 µM	–	> 100 µM	> 100 µM	–	–	–	–	–	–	–	–	–	–	> 100 µM	–
ClC[Si]12OCCN(CCO1)CCO2	> 100 µM	> 100 µM	–	> 100 µM	> 100 µM	> 100 µM	> 100 µM	> 100 µM	–	–	–	–	–	–	–	–	–	–	–	–
O=C(O)C1OC(Oc2cc(O)c3c(=O)cc(-c4ccc(O)cc4)oc3c2)C(O)C(O)C1O (configuration not stated)	–	–	> 100 µM	> 100 µM	> 100 µM	> 100 µM	> 100 µM	> 100 µM	–	–	–	–	–	–	–	–	–	–	–	–
CC1=C(c2cc(C(=O)Nc3nccs3)nc(NC#N)n2)Sc2ccccc2N1	> 100 µM	> 100 µM	–	> 100 µM	> 100 µM	–	> 100 µM	> 100 µM	–	–	–	–	–	–	–	–	–	–	–	–
COc1ccc(C#CCC(OC2OC(CO)C(O)C(O)C2O)C(O)c2ccc(OC)c(OC)c2)cc1OC (configuration not stated)	> 100 µM	> 100 µM	59.1 µM	> 100 µM	> 100 µM	> 100 µM	> 100 µM	> 100 µM	–	–	–	–	–	–	–	–	–	–	–	–
CCC(/C(=N\Nc1c(Cl)cc(Cl)cc1Cl)c1ccccc1)n1ccnc1C (configuration not stated)	29.2 µM	–	26.8 µM	18.1 µM	24.7 µM	15.7 µM	25.6 µM	35 µM	–	–	–	–	–	–	–	–	–	–	–	–
CC(C)CC(=O)NS(=O)(=O)c1ccccc1	> 100 µM	> 100 µM	> 100 µM	> 100 µM	> 100 µM	> 100 µM	> 100 µM	> 100 µM	–	–	–	–	–	–	–	–	–	–	–	–
COc1cc2c3c(c4c5ccccc5[nH]c4c2c(OC)c1OC)C(=O)N(CCN1CCCCC1)C3=O	4.87 µM	–	2.45 µM	2.76 µM	3.13 µM	3.45 µM	2.87 µM	4.57 µM	1.35 µM	–	1.05 µM	0.794 µM	1.25 µM	1.32 µM	1.22 µM	2.54 µM	1.27 µM	1.08 µM	2.64 µM	1.22 µM
Oc1cc2c(cc1O)-c1[nH]ncc1CC2	95.8 µM	> 100 µM	> 100 µM	25.5 µM	> 100 µM	50.7 µM	> 100 µM	69 µM	–	–	–	–	–	–	–	–	–	–	–	–
CCN(CC)CC(O)C1CCC(c2ccccc2)CC1 (configuration not stated)	42.9 µM	–	42.1 µM	43.1 µM	36.6 µM	11.5 µM	47.6 µM	33.3 µM	–	–	–	–	–	–	–	> 100 µM	–	–	> 100 µM	–
CC(=O)c1ccc(NCN2C(=O)c3ccccc3C2=O)cc1	> 100 µM	–	> 100 µM	> 100 µM	> 100 µM	> 100 µM	> 100 µM	–	–	–	–	–	–	–	–	> 100 µM	–	–	> 100 µM	–
C=C(CN1CCN(c2cccc(F)c2)CC1)c1ccc(C(=O)Nc2ccccc2N)cc1	9.08 µM	–	13.1 µM	3.88 µM	73.6 µM	11 µM	13 µM	35.2 µM	2.12 µM	–	1.67 µM	0.848 µM	2.77 µM	2.98 µM	1.8 µM	7.16 µM	1.84 µM	4.17 µM	4.03 µM	0.689 µM
O=C(c1ccc2c3c(ccc(C(=O)C(F)(F)F)c13)CC2)C(F)(F)F	> 100 µM	> 100 µM	> 100 µM	98.9 µM	> 100 µM	> 100 µM	> 100 µM	> 100 µM	–	–	–	–	–	–	–	–	–	–	–	–
CCN(CC)CCOc1ccc(C(=C2CCCCC2)c2ccc(OCCN(CC)CC)cc2)cc1	3.8 µM	–	2.69 µM	3.29 µM	3.3 µM	2.62 µM	2.69 µM	4.26 µM	–	–	–	–	–	–	–	–	–	–	–	–
CC(=O)OCC1OC(Sc2ccccn2)C=CC1OC(C)=O (configuration not stated)	> 100 µM	> 100 µM	> 100 µM	> 100 µM	> 100 µM	> 100 µM	> 100 µM	> 100 µM	–	–	–	–	–	–	–	–	–	–	–	–
CN1CCCN(C(c2ccccc2)c2ccc(Br)cc2)CC1 (configuration not stated)	17.9 µM	–	10.1 µM	13.9 µM	14.5 µM	16 µM	14 µM	20.8 µM	5.86 µM	–	2.85 µM	3.62 µM	3.52 µM	4.55 µM	10.5 µM	22.3 µM	3.94 µM	7.23 µM	13.5 µM	2.87 µM
Cc1cccc(NC(=O)CC#N)c1Cl	–	> 100 µM	> 100 µM	> 100 µM	> 100 µM	–	> 100 µM	> 100 µM	–	–	–	–	–	–	–	–	–	–	–	–
CC1=CC2C(C(C)C)CC1C1C(=O)OC(=O)C21 (configuration not stated)	> 100 µM	–	> 100 µM	> 100 µM	–	> 100 µM	> 100 µM	> 100 µM	–	–	–	–	–	–	–	> 100 µM	–	–	> 100 µM	–

From PubChem BioAssay (NCI)
